Earlier results in US20080182860A1, “Pyrimidine Compounds as Purine Receptor Antagonist” (VERNALIS (R&D) LTD., priority 2004, published 2008).

Key:
Parkinsonian patients = conditions: 150 mg/day slow release oral

SMILES	anticataleptic effects of a subthreshold dose of L-DOPA plus benserazide (adenosine A2A receptor; in vivo)	catalepsy induced by haloperidol and reserpine (adenosine A2A receptor; in vivo)	cataleptic responses induced by intracerebroventricular CGS 21680 (adenosine A2A receptor; oral administration)	serum theophylline levels (Parkinsonian patients; after one week, 15 Parkinsonian patients) [mg/L]	mean objective disability scores (Parkinsonian patients; up to 12 weeks)
CCCn1c(=O)c2c(nc(/C=C/c3ccc(OC)c(OC)c3)n2C)n(CCC)c1=O [KF 17837, (E)-8-(3,4-dimethoxystyryl)-1,3-dipropyl-7-methylxanthine]	potentiated	reduced	significantly ameliorated	–	–
Cn1c(=O)c2[nH]cnc2n(C)c1=O [Theophylline, 1,3-dimethylxanthine]	–	–	–	4.44	significant improvements
